Results as given in patent publication US4616081A, “Cephalosporin compounds” (Asahi Kasei Kogyo Kabushiki Kaisha, priority 1982, dated 1986).

Experiments:
[1] = test system: Bac. subtilis ATCC 6633; assay: MIC against Bac. subtilis ATCC 6633; format: cell-based; settings: Bacterial count inoculated 10^6 cells/ml
Experimental: (§1) With respect to Compound Nos. 14 and 15, antibacterial activity or minimum inhibitory concentration (MIC) was measured and the results are shown in Table 2. [drawing 21]

[2] = test system: Salm. enteritidis Gaertner; assay: MIC against Salm. enteritidis Gaertner; format: cell-based; settings: Bacterial count inoculated 10^6 cells/ml
Experimental: (§2) Nextly, antibacterial activity or minimum inhibitory concentration (MIC) was measured and the results are shown in Table 1 with respect to the following representative compounds according to the present invention. [drawing 19]
as §1

[3] = acute toxicity test using mice, intraperitoneal; settings: mouse, in vivo, ip
Excerpt: In addition to excellent antibacterial activity, the compounds of the present invention are low in toxicity. For example, in acute toxicity test using mice, the following results were obtained with Compound Nos. 2, 3, 7, 14, 15 and 23 which were intraperitoneally administered.

[4] = test system: Sarcina lutea ATCC 9341; assay: MIC against Sarcina lutea ATCC 9341; format: cell-based; settings: Bacterial count inoculated 10^6 cells/ml
Experimental: as §2, §1

[5] = maximum blood concentration after oral administration in Wister rats (HPLC and Bioassay); format: in vivo; settings: Wister rat, fasted, 30 mg/kg, solution of pH 7 in phosphate buffer
Experimental: Further in the compounds according to the present invention, intestinal absorption is improved by the introduction of amino acids at the 3-position thereof. For example, comparison of the maximum blood concentration of the Compound Nos. 2, 3, 7, 8, 14, 15 and 23 with that of Comparative Compound (b) establishes and affirms the effects, as is shown below. In the above test, the method for measurement of blood concentration was as follows. Rate: Wister rat weighing 170 to 220 g Dose: 30 mg/kg Wister rats were fasted from the previous night but freely accessible to water. Each of drugs was administered as a solution of pH 7 in a phosphate buffer, when orally administered. The blood concentration was measured in accordance with the High Performance Liquid Chromatography (HPLC) method and the Bioassay method by using E. coli as bacteria for test.

[6] = test system: Proteus rettgeri ACR; assay: MIC against Proteus rettgeri ACR; format: cell-based
Experimental: as §2, §1

[7] = test system: Ps. aeruginosa 0812 M2; assay: MIC against Ps. aeruginosa 0812 M2; format: cell-based; settings: Bacterial count inoculated 10^6 cells/ml
Experimental: as §2, §1

[8] = test system: Staph. aureus MS27; assay: MIC against Staph. aureus MS27; format: cell-based; settings: Bacterial count inoculated 10^6 cells/ml
Experimental: as §2, §1

[9] = test system: E. coli W3630; assay: MIC against E. coli W3630; format: cell-based
Experimental: as §2, §1

[10] = test system: Serratia marcescens; assay: MIC against Serratia marcescens; format: cell-based
Experimental: as §2, §1

[11] = test system: Strept. pyogenes NY5; assay: MIC against Strept. pyogenes NY5; format: cell-based; settings: Bacterial count inoculated 10^6 cells/ml
Experimental: as §2, §1

[12] = test system: Enterobact. aerogenes 0655; assay: MIC against Enterobact. aerogenes 0655; format: cell-based; settings: Bacterial count inoculated 10^6 cells/ml
Experimental: as §2, §1

[13] = test system: Citrobact. freundii GN346; assay: MIC against Citrobact. freundii GN346; format: cell-based; settings: Bacterial count inoculated 10^6 cells/ml
Experimental: as §2, §1

[14] = test system: E. coli NIHJ-JC2; assay: MIC against E. coli NIHJ-JC2; format: cell-based
Experimental: as §2, §1

[15] = test system: Shigella sonnei E33; assay: MIC against Shigella sonnei E33; format: cell-based
Experimental: as §2, §1

[16] = test system: Klebs. pneumoniae ATCC 10031; assay: MIC against Klebs. pneumoniae ATCC 10031; format: cell-based
Experimental: as §2, §1

[17] = test system: Staph. aureus ATCC 6538P; assay: MIC against Staph. aureus ATCC 6538P; format: cell-based; settings: Bacterial count inoculated 10^6 cells/ml
Experimental: as §2, §1

[18] = test system: Enterobact. cloacae GN336; assay: MIC against Enterobact. cloacae GN336; format: cell-based
Experimental: as §2, §1

[19] = test system: Proteus morganii 0239; assay: MIC against Proteus morganii 0239; format: cell-based; settings: Bacterial count inoculated 10^6 cells/ml
Experimental: as §2, §1

[20] = test system: E. coli W3630 PS3; assay: MIC against E. coli W3630 PS3; format: cell-based; settings: Bacterial count inoculated 10^6 cells/ml
Experimental: as §2, §1

[21] = test system: E. coli W3630 RGN238; assay: MIC against E. coli W3630 RGN238; format: cell-based
[22] = test system: E. coli 0205; assay: MIC against E. coli 0205; format: cell-based
[23] = test system: E. coli W3630 RGN14; assay: MIC against E. coli W3630 RGN14; format: cell-based
[24] = Bacterial count inoculated 10^6 cells/ml
[25] = Table 3, second listing of the strain, head prints 10^6 cells/ml

Compound: CO/N=C(\C(=O)N[C@@H]1C(=O)N2C(C(=O)O)=C(C[n+]3cccc(CC(N)C(=O)O)c3)CS[C@H]12)c1csc(N)n1 (some centres unmarked) [Compound No. 15]
- Minimum Inhibitory Concentration (MIC) [1]: 1.6
- Minimum Inhibitory Concentration (MIC) [2]: ≤ 0.1
- LD50 [3]: 10000 to 12000 mg/kg
- Minimum Inhibitory Concentration (MIC) [4]: ≤ 0.1
- Cmax [5]: 12000 ng/mL
- Minimum Inhibitory Concentration (MIC) [6, 24]: 0.2
- Minimum Inhibitory Concentration (MIC) [7]: 6.3
- Minimum Inhibitory Concentration (MIC) [8]: 6.3
- Minimum Inhibitory Concentration (MIC) [9, 24]: 0.2
- Minimum Inhibitory Concentration (MIC) [10, 24]: 0.4
- Minimum Inhibitory Concentration (MIC) [11]: ≤ 0.1
- Minimum Inhibitory Concentration (MIC) [12]: 0.2
- Minimum Inhibitory Concentration (MIC) [13]: 12.5
- Minimum Inhibitory Concentration (MIC) [14, 24]: 0.2
- Minimum Inhibitory Concentration (MIC) [15, 24]: ≤ 0.1
- Minimum Inhibitory Concentration (MIC) [16, 24]: 0.1
- Minimum Inhibitory Concentration (MIC) [17]: 3.1
- Minimum Inhibitory Concentration (MIC) [18, 24]: 0.2
- Minimum Inhibitory Concentration (MIC) [19]: 0.2
- Minimum Inhibitory Concentration (MIC) [20]: 0.1

Compound: CO/N=C(\C(=O)N[C@@H]1C(=O)N2C(C(=O)O)=C(CSc3ncc(C[C@H](N)C(=O)O)[nH]3)CS[C@H]12)c1csc(N)n1 [Compound No. 23]
- LD50 [3]: 10000 to 12000 mg/kg
- Cmax [5]: 6000 ng/mL
- Minimum Inhibitory Concentration (MIC) [6, 24]: ≤ 0.2
- Minimum Inhibitory Concentration (MIC) [6, 25]: 25
- Minimum Inhibitory Concentration (MIC) [9, 24]: ≤ 0.2
- Minimum Inhibitory Concentration (MIC) [9, 25]: 6.3
- Minimum Inhibitory Concentration (MIC) [10, 24]: ≤ 0.2
- Minimum Inhibitory Concentration (MIC) [10, 25]: > 100
- Minimum Inhibitory Concentration (MIC) [21, 24]: ≤ 0.2
- Minimum Inhibitory Concentration (MIC) [21, 25]: 25
- Minimum Inhibitory Concentration (MIC) [14, 24]: ≤ 0.2
- Minimum Inhibitory Concentration (MIC) [14, 25]: 12.5
- Minimum Inhibitory Concentration (MIC) [15, 24]: ≤ 0.2
- Minimum Inhibitory Concentration (MIC) [15, 25]: 1.6
- Minimum Inhibitory Concentration (MIC) [16, 24]: ≤ 0.2
- Minimum Inhibitory Concentration (MIC) [16, 25]: 1.6
- Minimum Inhibitory Concentration (MIC) [22, 24]: 0.4
- Minimum Inhibitory Concentration (MIC) [22, 25]: 12.5
- Minimum Inhibitory Concentration (MIC) [23, 24]: ≤ 0.2
- Minimum Inhibitory Concentration (MIC) [23, 25]: 6.3
- Minimum Inhibitory Concentration (MIC) [18, 24]: ≤ 0.2
- Minimum Inhibitory Concentration (MIC) [18, 25]: 25

Compound: Cc1nnc(SCC2=C(C(=O)O)N3C(=O)C(NC(=O)Cn4cnnn4)C3SC2)s1 (centres unmarked) [Comparative Compound (a), reference compound]
- Minimum Inhibitory Concentration (MIC) [1]: 0.2
- Minimum Inhibitory Concentration (MIC) [2]: 3.1
- Minimum Inhibitory Concentration (MIC) [4]: 0.8
- Minimum Inhibitory Concentration (MIC) [6, 24]: > 100
- Minimum Inhibitory Concentration (MIC) [7]: > 100
- Minimum Inhibitory Concentration (MIC) [8]: 1.6
- Minimum Inhibitory Concentration (MIC) [9, 24]: 3.1
- Minimum Inhibitory Concentration (MIC) [10, 24]: > 100
- Minimum Inhibitory Concentration (MIC) [11]: 0.2
- Minimum Inhibitory Concentration (MIC) [12]: > 100
- Minimum Inhibitory Concentration (MIC) [13]: > 100
- Minimum Inhibitory Concentration (MIC) [14, 24]: 1.6
- Minimum Inhibitory Concentration (MIC) [15, 24]: 1.6
- Minimum Inhibitory Concentration (MIC) [16, 24]: 3.1
- Minimum Inhibitory Concentration (MIC) [17]: 0.4
- Minimum Inhibitory Concentration (MIC) [18, 24]: > 100
- Minimum Inhibitory Concentration (MIC) [19]: > 100
- Minimum Inhibitory Concentration (MIC) [20]: 3.1

Compound: CO/N=C(\C(=O)N[C@@H]1C(=O)N2C(C(=O)O)=C(C[n+]3ccc(CC(N)C(=O)O)cc3)CS[C@H]12)c1csc(N)n1 (stereo partly drawn) [Compound No. 14, 7β-[(Z)-2-(2-amino-4-thiazolyl)-2-(methoxyimino)acetamido]-3-[4-(2-amino-2-carboxy)ethyl-1-pyridiummethyl]-3-cephem-4-carboxylic acid]
- Minimum Inhibitory Concentration (MIC) [1]: ≤ 0.1
- Minimum Inhibitory Concentration (MIC) [2]: ≤ 0.1
- LD50 [3]: 9000 to 10000 mg/kg
- Minimum Inhibitory Concentration (MIC) [4]: 0.8
- Cmax [5]: 9000 ng/mL
- Minimum Inhibitory Concentration (MIC) [6, 24]: 0.2
- Minimum Inhibitory Concentration (MIC) [7]: 3.1
- Minimum Inhibitory Concentration (MIC) [8]: 3.1
- Minimum Inhibitory Concentration (MIC) [9, 24]: ≤ 0.1
- Minimum Inhibitory Concentration (MIC) [10, 24]: 0.1
- Minimum Inhibitory Concentration (MIC) [11]: 0.1
- Minimum Inhibitory Concentration (MIC) [12]: 0.2
- Minimum Inhibitory Concentration (MIC) [13]: 12.5
- Minimum Inhibitory Concentration (MIC) [14, 24]: 0.1
- Minimum Inhibitory Concentration (MIC) [15, 24]: ≤ 0.1
- Minimum Inhibitory Concentration (MIC) [16, 24]: ≤ 0.1
- Minimum Inhibitory Concentration (MIC) [17]: 6.3
- Minimum Inhibitory Concentration (MIC) [18, 24]: 0.2
- Minimum Inhibitory Concentration (MIC) [19]: 0.2
- Minimum Inhibitory Concentration (MIC) [20]: ≤ 0.1
